# Measurements taken from patent publication US8476194B2.
# How the values were obtained:
# Type in all cases: cell-based
# [1] = tested on: Leptosphaeria nodorum (LEPTNO); experiment: In vitro fungitoxicity assay against Leptosphaeria nodorum (LEPTNO) in copper-minus and copper-plus medium; conditions: CuCl2 10 μM, no test compound, across experiments
# [2] = tested on: Phytophthora capsici; experiment: In vitro fungitoxicity assay against Phytophthora capsici in copper-minus AS and copper-plus AS medium
# [3] = tested on: Ustilago maydis; experiment: In vitro fungitoxicity assay against Ustilago maydis in copper-minus and copper-plus medium; conditions: 1 μg/mL, calculated with Colby formula
SMILES,LEPTNO % Inhn. attributed to copper chloride alone [1],"% Inhn attributed to copper chloride alone ([2]; CuCl2 50 uM, no test compound, across experiments)","% Inhn Plus copper Predicted ([2]; 0.050 μg/mL, calculated with Colby formula)",% Inhn. Plus copper Predicted [3]
"[Cl][Cu][Cl] [CuCl2, copper chloride]",7.1 ± 6.0%,4.5 ± 7.9%,–,–
C/C(=N\NC(=O)c1ccc(Cl)cc1)c1cc(F)cc(F)c1O [Compound 96],–,–,7.2%,53.6%
